Key:
Test in all cases: relative viability (nuclei count vs DMSO), 5 days (fraction); higher = more cells survive
[1] = tested on: NCI-H838
Summary of the method: (§1)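 Values are medians from duplicate plates. Each reflects relative viability, defined as the nuclei count of treated wells over that of vehicle wells. Lung cancer cell lines in 1536-well plates were pin-tool dosed one day after seeding with one drug alone or with a fixed anchor-drug dose plus five library-drug doses (not always all listed) in √10 steps, then fixed, stained and imaged at 4× after 5 days.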

[2] = tested on: NCI-H520
Summary of the method: as §1

[3] = tested on: H3255
Summary of the method: as §1

[4] = tested on: NCI-H2405
Summary of the method: as §1

[5] = tested on: EPLC-272H
Summary of the method: as §1

[6] = tested on: HCC-827
Summary of the method: as §1

[7] = tested on: NCI-H1395
Summary of the method: as §1

[8] = tested on: NCI-H2087
Summary of the method: as §1

[9] = tested on: NCI-H1651
Summary of the method: as §1

[10] = tested on: EMC-BAC-2
Summary of the method: as §1

[11] = tested on: NCI-H2085
Summary of the method: as §1

[12] = tested on: NCI-H1793
Summary of the method: as §1

[13] = tested on: LCLC-103H
Summary of the method: as §1

[14] = tested on: SK-MES-1
Summary of the method: as §1

[15] = tested on: NCI-H650
Summary of the method: as §1

[16] = tested on: NCI-H1944
Summary of the method: as §1

[17] = tested on: ChaGo-K-1
Summary of the method: as §1

[18] = tested on: LU99A
Summary of the method: as §1

[19] = tested on: HCC-44
Summary of the method: as §1

[20] = tested on: NCI-H2023
Summary of the method: as §1

[21] = tested on: COR-L23
Summary of the method: as §1

`CCN(CC)CCCCNc1ncc2cc(-c3cc(OC)cc(OC)c3)c(NC(=O)NC(C)(C)C)nc2n1` + O=C(CCCCCCC(=O)Nc1ccccc1)NO [Vorinostat] (partner 1 µM) gave a relative viability ([1]; first compound 0.01 µM) of 0.669, a relative viability ([1]; first compound 0.03162 µM) of 0.732 and a relative viability ([1]; first compound 0.1 µM) of 0.779. For the same compound, the relative viability ([1]; first compound 0.3162 µM) was 0.69, the relative viability ([1]; first compound 1 µM) was 0.592 and the relative viability ([2]; first compound 0.01 µM) was 0.783. For the same compound, the relative viability ([2]; first compound 0.03162 µM) was 0.731, the relative viability ([2]; first compound 0.1 µM) was 0.673 and the relative viability ([2]; first compound 0.3162 µM) was 0.633. For the same compound, the relative viability ([2]; first compound 1 µM) was 0.273, the relative viability ([3]; first compound 0.01 µM) was 0.702 and the relative viability ([3]; first compound 0.1 µM) was 0.946. The relative viability ([3]; first compound 0.3162 µM) was 1.02, the relative viability ([3]; first compound 1 µM) was 0.785 and the relative viability ([4]; first compound 0.01 µM) was 0.795. It also gave a relative viability ([4]; first compound 0.03162 µM) of 1.03, a relative viability ([4]; first compound 0.1 µM) of 1.08 and a relative viability ([4]; first compound 0.3162 µM) of 1.22. It also gave a relative viability ([4]; first compound 1 µM) of 0.94, a relative viability ([5]; first compound 0.01 µM) of 0.4 and a relative viability ([5]; first compound 0.03162 µM) of 0.537. It also gave a relative viability ([5]; first compound 0.1 µM) of 0.277, a relative viability ([5]; first compound 0.3162 µM) of 0.493 and a relative viability ([5]; first compound 1 µM) of 0.335. It also gave a relative viability ([6]; first compound 0.01 µM) of 0.883, a relative viability ([6]; first compound 0.03162 µM) of 0.969 and a relative viability ([6]; first compound 0.1 µM) of 0.866. The relative viability ([6]; first compound 0.3162 µM) was 0.937, the relative viability ([6]; first compound 1 µM) was 0.674 and the relative viability ([7]; first compound 0.01 µM) was 0.648. It also gave a relative viability ([7]; first compound 0.03162 µM) of 0.786, a relative viability ([7]; first compound 0.1 µM) of 0.714 and a relative viability ([7]; first compound 0.3162 µM) of 0.742. It also gave a relative viability ([7]; first compound 1 µM) of 0.513, a relative viability ([8]; first compound 0.01 µM) of 0.669 and a relative viability ([8]; first compound 0.03162 µM) of 0.71. The relative viability ([8]; first compound 0.1 µM) was 0.893, the relative viability ([8]; first compound 0.3162 µM) was 0.886 and the relative viability ([8]; first compound 1 µM) was 0.514. The relative viability ([9]; first compound 0.01 µM) was 0.541, the relative viability ([9]; first compound 0.03162 µM) was 0.626 and the relative viability ([9]; first compound 0.1 µM) was 0.582. It also gave a relative viability ([9]; first compound 0.3162 µM) of 0.674, a relative viability ([9]; first compound 1 µM) of 0.475 and a relative viability ([10]; first compound 0.03162 µM) of 0.403. For the same compound, the relative viability ([10]; first compound 0.1 µM) was 0.428, the relative viability ([10]; first compound 0.3162 µM) was 0.758 and the relative viability ([10]; first compound 1 µM) was 0.444. It also gave a relative viability ([11]; first compound 0.01 µM) of 0.782, a relative viability ([11]; first compound 0.03162 µM) of 0.8 and a relative viability ([11]; first compound 0.1 µM) of 0.935. The relative viability ([11]; first compound 0.3162 µM) was 0.858, the relative viability ([11]; first compound 1 µM) was 0.793 and the relative viability ([12]; first compound 0.01 µM) was 0.724. For the same compound, the relative viability ([12]; first compound 0.03162 µM) was 0.707, the relative viability ([12]; first compound 0.1 µM) was 0.898 and the relative viability ([12]; first compound 0.3162 µM) was 0.816. For the same compound, the relative viability ([12]; first compound 1 µM) was 0.599, the relative viability ([13]; first compound 0.01 µM) was 0.776 and the relative viability ([13]; first compound 0.03162 µM) was 0.805. The relative viability ([13]; first compound 0.1 µM) was 0.775, the relative viability ([13]; first compound 0.3162 µM) was 0.788 and the relative viability ([13]; first compound 1 µM) was 0.769. For the same compound, the relative viability ([14]; first compound 0.01 µM) was 1.15, the relative viability ([14]; first compound 0.03162 µM) was 1.17 and the relative viability ([14]; first compound 0.1 µM) was 1.22. For the same compound, the relative viability ([14]; first compound 0.3162 µM) was 1.52, the relative viability ([14]; first compound 1 µM) was 1.19 and the relative viability ([15]; first compound 0.01 µM) was 0.349. For the same compound, the relative viability ([15]; first compound 0.03162 µM) was 0.433, the relative viability ([15]; first compound 0.1 µM) was 0.498 and the relative viability ([15]; first compound 0.3162 µM) was 0.525. It also gave a relative viability ([15]; first compound 1 µM) of 0.422, a relative viability ([16]; first compound 0.01 µM) of 0.536 and a relative viability ([16]; first compound 0.03162 µM) of 0.676. The relative viability ([16]; first compound 0.1 µM) was 0.596, the relative viability ([16]; first compound 0.3162 µM) was 0.576 and the relative viability ([16]; first compound 1 µM) was 0.521. For the same compound, the relative viability ([17]; first compound 0.01 µM) was 0.776, the relative viability ([17]; first compound 0.03162 µM) was 0.822 and the relative viability ([17]; first compound 0.1 µM) was 0.824. It also gave a relative viability ([17]; first compound 0.3162 µM) of 0.827, a relative viability ([17]; first compound 1 µM) of 0.693 and a relative viability ([18]; first compound 0.01 µM) of 0.528. It also gave a relative viability ([18]; first compound 0.03162 µM) of 0.601, a relative viability ([18]; first compound 0.1 µM) of 0.541 and a relative viability ([18]; first compound 0.3162 µM) of 0.529. For the same compound, the relative viability ([18]; first compound 1 µM) was 0.423, the relative viability ([19]; first compound 0.01 µM) was 1.11 and the relative viability ([19]; first compound 0.03162 µM) was 1.08. For the same compound, the relative viability ([19]; first compound 0.1 µM) was 1.16, the relative viability ([19]; first compound 0.3162 µM) was 1.08 and the relative viability ([19]; first compound 1 µM) was 1.15. It also gave a relative viability ([20]; first compound 0.01 µM) of 0.534, a relative viability ([20]; first compound 0.03162 µM) of 0.756 and a relative viability ([20]; first compound 0.1 µM) of 0.686. The relative viability ([20]; first compound 0.3162 µM) was 0.6, the relative viability ([20]; first compound 1 µM) was 0.567 and the relative viability ([21]; first compound 0.01 µM) was 0.467. The relative viability ([21]; first compound 0.03162 µM) was 0.495, the relative viability ([21]; first compound 0.1 µM) was 0.379 and the relative viability ([21]; first compound 0.3162 µM) was 0.593. It also gave a relative viability ([21]; first compound 1 µM) of 0.434.
